Data from the OligoGym collection.
These antisense oligonucleotides have a phosphorothioate backbone; sugars and methylation of C are not fully specified.

Tests used:
Conditions in all cases: ASO
[1] = molecular target: ITGB3
[2] = molecular target: PYGL
[3] = molecular target: AKT1
[4] = molecular target: GNAI2
Further: test concentration or dose not given here.

Sequence	remaining target (mRNA or protein) (fraction of control) [2]	remaining target (mRNA or protein) (fraction of control) [4]	other results
CAATAAGGCAAATCTGAA	–	–	remaining target (mRNA or protein) (fraction of control) [1]: 0.77
CGGGCTGCGCAGAGAGCTGG	0.87	–	–
CGGTCCTCGGAGAACACA	–	–	remaining target (mRNA or protein) (fraction of control) [3]: ≥ 1
TAAAACCCGCAGGATAGT	–	–	remaining target (mRNA or protein) (fraction of control) [3]: 0.26
CTTTGACTTCTTTGACCC	–	–	remaining target (mRNA or protein) (fraction of control) [3]: 0.32
CTCGCTGTCCACACACTC	–	–	remaining target (mRNA or protein) (fraction of control) [3]: 0.39
TCATGATAAAATAGCATGTT	≥ 1	–	–
CCTAAGCCCCTGGTGACA	–	–	remaining target (mRNA or protein) (fraction of control) [3]: 0.85
AGAAGTCGTCACACTCGC	–	–	remaining target (mRNA or protein) (fraction of control) [1]: 0.72
GCCGTATCCATAGGCTGCAA	≥ 1	–	–
CCTCAAACTTACTCTGGA	–	0.85	–
TCCCGGTGTTGGTGTGTTCT	0.63	–	–
GCCAGCACAGTCACCCAG	–	–	remaining target (mRNA or protein) (fraction of control) [1]: ≥ 1
TCTCACTGAGGTAATGAA	–	–	remaining target (mRNA or protein) (fraction of control) [1]: 0.66
CACATTGACCACAGAGGC	–	–	remaining target (mRNA or protein) (fraction of control) [1]: 0.74
CAGGGAGTCAGGGAGGGC	–	–	remaining target (mRNA or protein) (fraction of control) [3]: 0.87
ATTGTCATTGGGATAGAGGA	0.49	–	–
AAAGGCACAGGCAGCTCT	–	–	remaining target (mRNA or protein) (fraction of control) [1]: ≥ 1
CAGCTTTACCACCAATGATA	0.29	–	–
TCACCGTGTCTCCAATCT	–	–	remaining target (mRNA or protein) (fraction of control) [1]: 0.53
ATTTTGCAGACCGAGGTTGA	0.31	–	–
TGAGCAGGTGGACTGTGG	–	0.31	–
TCCAGCGCCCCACCAGGTGG	0.44	–	–

Sequence	remaining target (mRNA or protein) (fraction of control) [2]	remaining target (mRNA or protein) (fraction of control) [4]	other results
AAAGAGAGGAAAGAGGAG	–	0.99	–
ACCAGCATCTCAGACAAG	–	≥ 1	–
ATCACCCAGGAAGCTGTGGA	0.31	–	–
GGGTCCGTAGCACATCTT	–	0.47	–
GTGCCGCAAAAGGTCTTC	–	–	remaining target (mRNA or protein) (fraction of control) [3]: 0.34
ATGACTGCTTATCATTAA	–	–	remaining target (mRNA or protein) (fraction of control) [1]: ≥ 1
AGGATGGGTTGATCTTCACT	0.39	–	–
CGAAAAGGTCAAGTGCTA	–	–	remaining target (mRNA or protein) (fraction of control) [3]: 0.59
GTTCTGGATGCTCCACAG	–	–	remaining target (mRNA or protein) (fraction of control) [1]: 0.55
CCCTCCAGACGCAGCCTT	–	0.47	–
GCCCATTGCTGGACATGC	–	–	remaining target (mRNA or protein) (fraction of control) [1]: ≥ 1
TGAAGTGTGTCTCCACGA	–	0.61	–
TTCCAACCATAGGGTCATTG	0.27	–	–
AGGTCGTTCAGGTAGTAG	–	0.64	–
TCAGCTTGGGCCTGGCAG	–	–	remaining target (mRNA or protein) (fraction of control) [1]: 0.6
TCCAACATTAAAGTCTCTGA	0.62	–	–
CGGACAGGTCATCAGGGA	–	0.59	–
ATGCTTCTGATTTATCTCAT	0.49	–	–
CAACAGCAGCAACTTCAC	–	0.89	–
AGCTGGTATTCCCTTGAG	–	0.55	–
ATGCTCATGCCAAAGATGAA	0.98	–	–
TCTGTCAGCGGTTCGCCCAT	0.69	–	–
GCCCCGCTGCCCCTCAGA	–	0.65	–

Sequence	remaining target (mRNA or protein) (fraction of control) [2]	remaining target (mRNA or protein) (fraction of control) [4]	other results
GGGAAGCAGATGGTCAGG	–	0.86	–
ACATCTTGAAGTGTAGGT	–	0.78	–
AGCTTCTCAGTCATCAGC	–	–	remaining target (mRNA or protein) (fraction of control) [1]: 0.28
CGTTCTTGGTGTCGGTGG	–	0.39	–
AGGCTCCCTGTAAACATT	–	0.77	–
ACGACACAGTCATCCTCA	–	–	remaining target (mRNA or protein) (fraction of control) [1]: ≥ 1
CTTGAAGGTGAAGTGTGT	–	0.74	–
AGTATTCTTTTGCCTCGTAC	0.21	–	–
AGGAAGAGGATGATGGAC	–	≥ 1	–
CACAGCATGGGAACCGACAA	0.15	–	–
CAGCGGTTCGCCCATGGCTG	0.98	–	–
CTGTGACGCCCTCAAAGC	–	0.51	–
GACTCCTGCAATCCTGGC	–	–	remaining target (mRNA or protein) (fraction of control) [1]: 0.53
AAGGTAGACGTGGCCTCT	–	–	remaining target (mRNA or protein) (fraction of control) [1]: 0.71
TCAAACTTCTTACACTCC	–	–	remaining target (mRNA or protein) (fraction of control) [1]: 0.54
ACTCACTGGGAACTCGAT	–	–	remaining target (mRNA or protein) (fraction of control) [1]: 0.66
ATCTGTGGCTGGAATGACTT	0.79	–	–
CGCAGAAGATGATGGCTG	–	0.67	–
TCACCCTCAAGCTAAGCA	–	–	remaining target (mRNA or protein) (fraction of control) [1]: ≥ 1
ATGGTGCTCTTCCCTGAC	–	0.52	–
TTGTCAATTTGATCAATGAC	0.62	–	–
AGACAAGGGCAGGCTTCA	–	0.37	–
TCATATTGCCTGTCCCCGAG	0.18	–	–
